Measured values published in US20040142317A1, “Use of amino acid transporter atbo,+ as a delivery system for drugs and prodrugs” (priority 2003, published 2004).

Legend:
LAT2/4F2hc = biological target: T1, LAT2/4F2hc (Homo sapiens, UniProt Q9UHI5); test: D-[3H]-serine transport in HRPE cells transfected with transporter cDNA; type: cell-based; settings: D-[3H]-serine 5 μM
T1 construct: expressed in transfected cells; host or cells: HRPE cells
T1 sequence (Q9UHI5 1-535): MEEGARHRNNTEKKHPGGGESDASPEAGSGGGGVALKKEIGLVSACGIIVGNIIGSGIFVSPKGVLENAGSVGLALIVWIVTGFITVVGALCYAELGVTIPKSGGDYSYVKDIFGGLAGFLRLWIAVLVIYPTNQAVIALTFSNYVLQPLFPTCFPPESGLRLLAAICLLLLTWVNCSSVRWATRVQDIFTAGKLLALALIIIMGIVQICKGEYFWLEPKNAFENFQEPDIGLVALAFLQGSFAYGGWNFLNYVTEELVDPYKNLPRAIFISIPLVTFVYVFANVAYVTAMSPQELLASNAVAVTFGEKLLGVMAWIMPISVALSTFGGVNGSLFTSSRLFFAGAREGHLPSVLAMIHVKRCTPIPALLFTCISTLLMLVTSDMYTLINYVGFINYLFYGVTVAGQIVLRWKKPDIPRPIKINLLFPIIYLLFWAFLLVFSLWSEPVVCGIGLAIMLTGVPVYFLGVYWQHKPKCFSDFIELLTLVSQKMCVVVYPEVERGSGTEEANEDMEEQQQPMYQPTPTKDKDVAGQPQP
T1 sequence (P08195 1-529 partner): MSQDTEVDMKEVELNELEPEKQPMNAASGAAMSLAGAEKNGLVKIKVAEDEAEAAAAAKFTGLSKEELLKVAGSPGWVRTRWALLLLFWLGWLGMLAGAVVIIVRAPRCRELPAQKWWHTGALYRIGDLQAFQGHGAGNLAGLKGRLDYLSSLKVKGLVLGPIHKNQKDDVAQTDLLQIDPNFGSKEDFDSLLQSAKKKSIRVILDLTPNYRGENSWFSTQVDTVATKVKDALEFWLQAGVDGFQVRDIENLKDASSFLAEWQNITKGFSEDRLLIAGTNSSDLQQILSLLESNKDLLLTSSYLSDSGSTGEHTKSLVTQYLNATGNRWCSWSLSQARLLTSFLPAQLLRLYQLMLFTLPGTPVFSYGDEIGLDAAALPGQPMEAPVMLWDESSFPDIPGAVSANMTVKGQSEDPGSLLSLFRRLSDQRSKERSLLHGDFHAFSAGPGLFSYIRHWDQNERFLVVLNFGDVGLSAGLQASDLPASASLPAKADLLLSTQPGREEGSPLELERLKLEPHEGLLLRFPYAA
Protocol: (§1) Transport of D-[^3H]-serine (5 μM) was measured in HRPE cells transfected with cDNA of each transporter.
(§2) The present inventors evaluated the function of 10 different amino acid transporter clones with respect to transport of D-serine in heterologous expression systems (FIG. 11). All of these transporters are expressed in the intestinal tract. The list of the transporters tested include three energy-independent, heterodimeric facilitative transporters (L1, L2, and b^0,+), three subtypes of the Na^+-coupled system A (ATA1, ATA2, and ATA3), two subtypes of the Na^+- and H^+-coupled system N (SN1 and SN2), the Na^+-coupled system ATB^0, and the Na^+- and Cl^−-coupled system ATB^0,+. […] The ability to transport D-serine was the highest for the Na^+- and Cl^−-coupled transporter ATB^0,+. ATB^0,+ belongs to the gene family of neurotransmitter transporters whose transport function is energized by multiple driving forces, namely a Na^+ gradient, a Cl^− gradient, and membrane potential. […] Based on the energetics of these two transport systems, ATB^0,+ is expected to play the leading role in this process.

ATA2 = biological target: T2, ATA2 (Homo sapiens, UniProt Q96QD8); test: as above; type: cell-based; settings: D-[3H]-serine 5 μM
T2 construct: expressed in transfected cells; host or cells: HRPE cells
T2 sequence (Q96QD8 1-506): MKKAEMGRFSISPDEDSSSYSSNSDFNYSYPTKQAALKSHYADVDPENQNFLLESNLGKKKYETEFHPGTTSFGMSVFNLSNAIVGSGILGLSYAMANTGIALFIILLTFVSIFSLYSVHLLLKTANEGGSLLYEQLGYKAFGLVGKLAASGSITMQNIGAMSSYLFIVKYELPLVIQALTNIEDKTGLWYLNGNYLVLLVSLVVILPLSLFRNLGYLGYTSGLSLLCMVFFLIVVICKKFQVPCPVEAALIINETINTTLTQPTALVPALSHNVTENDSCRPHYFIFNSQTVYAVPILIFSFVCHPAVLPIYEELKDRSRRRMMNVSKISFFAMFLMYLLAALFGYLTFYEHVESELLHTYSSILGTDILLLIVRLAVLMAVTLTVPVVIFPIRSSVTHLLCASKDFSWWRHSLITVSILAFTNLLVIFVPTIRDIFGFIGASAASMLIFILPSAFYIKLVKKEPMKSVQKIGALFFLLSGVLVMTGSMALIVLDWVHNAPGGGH
Protocol: as §1, §2

ATB^0,+ = biological target: T3, ATB^0,+ (Mus musculus, UniProt Q9JMA9); test: as above; type: cell-based; settings: D-[3H]-serine 5 μM
T3 construct: expressed in transfected cells; host or cells: HRPE cells
T3 sequence (Q9JMA9 1-638): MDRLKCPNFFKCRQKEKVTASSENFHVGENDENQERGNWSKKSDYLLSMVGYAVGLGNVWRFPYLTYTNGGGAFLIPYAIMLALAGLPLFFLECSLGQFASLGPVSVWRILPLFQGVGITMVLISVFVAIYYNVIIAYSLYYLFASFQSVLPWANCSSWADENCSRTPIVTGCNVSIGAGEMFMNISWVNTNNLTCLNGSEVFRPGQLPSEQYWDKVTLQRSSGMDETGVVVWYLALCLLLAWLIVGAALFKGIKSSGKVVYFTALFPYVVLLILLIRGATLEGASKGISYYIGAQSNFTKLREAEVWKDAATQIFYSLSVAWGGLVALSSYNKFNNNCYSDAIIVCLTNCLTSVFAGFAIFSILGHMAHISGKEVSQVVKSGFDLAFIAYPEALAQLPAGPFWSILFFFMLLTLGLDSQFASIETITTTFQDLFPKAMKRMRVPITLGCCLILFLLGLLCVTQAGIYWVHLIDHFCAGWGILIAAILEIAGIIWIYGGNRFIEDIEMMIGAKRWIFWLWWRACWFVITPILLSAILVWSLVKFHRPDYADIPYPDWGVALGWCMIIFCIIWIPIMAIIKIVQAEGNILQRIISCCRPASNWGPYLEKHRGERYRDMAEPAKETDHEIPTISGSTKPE
Protocol: as §1, §2

SN1 = biological target: T4, SN1 (Homo sapiens, UniProt Q99624); test: as above; type: cell-based; settings: D-[3H]-serine 5 μM
T4 construct: expressed in transfected cells; host or cells: HRPE cells
Protocol: as §1, §2

mouse ATB^0,+ = biological target: T5, mouse ATB^0,+ (Mus musculus, UniProt Q9JMA9); settings: D-amino acid 1 mM; NaCl pH 7.5
T5 sequence (Q9JMA9 1-638): T3 sequence (Q9JMA9 1-638)

T4 sequence (Q99624 whole entry, species assumed): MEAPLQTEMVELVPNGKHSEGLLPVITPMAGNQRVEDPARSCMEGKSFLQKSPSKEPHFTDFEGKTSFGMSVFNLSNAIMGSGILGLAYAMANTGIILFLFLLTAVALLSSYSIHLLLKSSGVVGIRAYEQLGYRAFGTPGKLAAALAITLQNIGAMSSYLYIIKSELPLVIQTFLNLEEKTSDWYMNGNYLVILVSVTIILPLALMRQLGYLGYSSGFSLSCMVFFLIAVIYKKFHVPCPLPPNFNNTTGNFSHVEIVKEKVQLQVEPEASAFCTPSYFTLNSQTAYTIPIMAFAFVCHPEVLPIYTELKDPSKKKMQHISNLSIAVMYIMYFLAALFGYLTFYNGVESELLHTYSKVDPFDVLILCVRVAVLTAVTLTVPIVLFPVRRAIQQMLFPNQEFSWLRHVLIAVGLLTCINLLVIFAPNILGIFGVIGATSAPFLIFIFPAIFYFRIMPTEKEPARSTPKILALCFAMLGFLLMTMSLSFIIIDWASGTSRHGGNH

SMILES: N[C@H](CO)C(=O)O [D-Serine, D-serine]
- D-serine transport (LAT2/4F2hc): did not exhibit detectable D-serine transport activity
- D-serine transport (ATA2): showed D-serine transport activity
- D-serine transport (ATB^0,+): highest
- D-serine transport (SN1): did not transport D-serine
- Current in X. laevis oocytes (nA), D-isomer (mouse ATB^0,+): 267 ± 23 nA
